Results: US20250034159A1, “INHIBITORS OF EPIDERMAL GROWTH FACTOR RECEPTOR” (ORIC Pharmaceuticals, Inc., priority 2021, published 2025)
pIC50: −log10 of the molar value. Where two headings read alike, the source gives them in different places.

Assays:
[1] = biological target: recombinant human EGFR L858R/C797S double mutant protein (Homo sapiens (Human), UniProt P00533, C797S/L858R); test: Biological Activity Assay B: biochemical assay against EGFR L858R/C797S protein (EGFR LR/CS)
How it was run: (§1)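 Compounds were tested as 16-point serial dilutions (final DMSO 2.5%) with a Phosphosens peptide sensor/ATP working solution (40 uM/4 mM). The signal was read kinetically over 90 cycles at 120 s intervals. IC50s came from 4-parameter fits of per-well slopes.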

BaF3_EGFR d19/CS cells = test: Biological Activity Assay D: BaF3 cell proliferation assay, EGFR exon 19 deletion/C797S (BaF3 d19/CS); type: cell-based; details: Ba/F3 EGFR, read-out: BaF3 d19/CS IC50
[2] = biological target: recombinant human EGFR exon 19 deletion/C797S double mutant protein (Homo sapiens (Human), UniProt P00533, C797S/DEL746-750); test: Biological Activity Assay C: biochemical assay against EGFR exon 19 deletion/C797S protein (EGFR d19/CS)
Sequence of recombinant human EGFR exon 19 deletion/C797S double mutant protein (P00533 other isoform, or with tags, fused parts or gaps C797S/del 1-668/del 746-750 limits assumed): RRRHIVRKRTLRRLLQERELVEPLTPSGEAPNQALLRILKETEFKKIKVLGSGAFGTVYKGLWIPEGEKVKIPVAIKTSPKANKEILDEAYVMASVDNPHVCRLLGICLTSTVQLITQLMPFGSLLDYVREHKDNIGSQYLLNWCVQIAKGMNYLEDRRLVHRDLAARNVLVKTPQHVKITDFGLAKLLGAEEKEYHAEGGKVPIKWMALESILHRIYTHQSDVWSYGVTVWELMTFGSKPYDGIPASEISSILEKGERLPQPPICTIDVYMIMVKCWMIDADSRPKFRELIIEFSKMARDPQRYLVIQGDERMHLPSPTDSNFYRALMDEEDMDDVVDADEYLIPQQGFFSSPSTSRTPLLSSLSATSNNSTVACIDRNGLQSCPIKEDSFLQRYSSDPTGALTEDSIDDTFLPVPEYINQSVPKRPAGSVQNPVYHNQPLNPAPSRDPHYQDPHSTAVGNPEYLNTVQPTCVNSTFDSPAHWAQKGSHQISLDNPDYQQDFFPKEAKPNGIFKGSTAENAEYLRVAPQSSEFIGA
How it was run: as §1

Ba/F3_EGFR WT cells = test: Biological Activity Assay D: BaF3 cell proliferation assay, EGFR wild-type (BaF3 WT); type: cell-based; details: Ba/F3 EGFR, read-out: BaF3 WT IC50
BaF3_EGFR LR/CS cells = test: Biological Activity Assay D: BaF3 cell proliferation assay, EGFR L858R/C797S mutant (BaF3 LR/CS); type: cell-based; details: Ba/F3 EGFR, read-out: BaF3 LR/CS IC50
[3] = BaF3_EGFR d19/CS cells, ~72 hours, CellTiter-Glo
[4] = Ba/F3_EGFR WT cells, ~72 hours, CellTiter-Glo
[5] = BaF3_EGFR LR/CS cells, ~72 hours, CellTiter-Glo

Sequence of recombinant human EGFR L858R/C797S double mutant protein (P00533 25-1210 C797S/L858R): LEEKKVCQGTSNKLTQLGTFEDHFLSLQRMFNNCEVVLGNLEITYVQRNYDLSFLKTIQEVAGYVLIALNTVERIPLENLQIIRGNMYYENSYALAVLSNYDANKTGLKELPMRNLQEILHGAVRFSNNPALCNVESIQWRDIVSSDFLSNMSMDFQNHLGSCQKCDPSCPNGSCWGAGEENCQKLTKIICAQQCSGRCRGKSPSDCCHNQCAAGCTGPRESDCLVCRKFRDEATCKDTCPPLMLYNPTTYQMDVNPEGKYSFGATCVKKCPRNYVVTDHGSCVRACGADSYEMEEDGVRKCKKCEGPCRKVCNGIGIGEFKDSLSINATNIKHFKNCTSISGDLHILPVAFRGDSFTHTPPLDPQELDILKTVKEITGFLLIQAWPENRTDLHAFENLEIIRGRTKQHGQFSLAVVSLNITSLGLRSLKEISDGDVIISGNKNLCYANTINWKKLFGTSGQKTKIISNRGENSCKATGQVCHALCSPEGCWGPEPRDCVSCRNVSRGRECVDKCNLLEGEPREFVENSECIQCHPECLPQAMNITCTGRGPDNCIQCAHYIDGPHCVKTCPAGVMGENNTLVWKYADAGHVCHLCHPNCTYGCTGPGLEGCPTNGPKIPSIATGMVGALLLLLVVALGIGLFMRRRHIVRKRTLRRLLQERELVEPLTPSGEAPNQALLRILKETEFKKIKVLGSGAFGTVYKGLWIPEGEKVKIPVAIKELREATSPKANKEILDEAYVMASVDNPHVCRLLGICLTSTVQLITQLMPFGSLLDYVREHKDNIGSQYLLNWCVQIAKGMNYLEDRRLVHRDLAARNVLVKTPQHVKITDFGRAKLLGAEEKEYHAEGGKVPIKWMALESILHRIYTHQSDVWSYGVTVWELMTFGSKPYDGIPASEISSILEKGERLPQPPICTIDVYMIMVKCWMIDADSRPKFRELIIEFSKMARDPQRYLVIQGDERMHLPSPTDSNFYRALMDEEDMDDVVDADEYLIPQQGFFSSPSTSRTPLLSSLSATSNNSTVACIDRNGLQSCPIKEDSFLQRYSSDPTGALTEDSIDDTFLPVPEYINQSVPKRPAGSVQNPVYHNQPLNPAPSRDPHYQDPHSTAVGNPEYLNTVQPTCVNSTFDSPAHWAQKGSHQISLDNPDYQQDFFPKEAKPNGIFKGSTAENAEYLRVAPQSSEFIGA

SMILES | pIC50 [1] | pIC50 (BaF3_EGFR d19/CS cells; [3]) | pIC50 [2] | pIC50 (Ba/F3_EGFR WT cells; [4]) | pIC50 (BaF3_EGFR LR/CS cells; [5]) | pIC50 (BaF3_EGFR d19/CS cells; 72 h) | pIC50 (Ba/F3_EGFR WT cells; 72 h) | pIC50 (BaF3_EGFR LR/CS cells; 72 h)
CN(C)S(=O)(=O)n1cc(-c2ncnc3oc(-c4ccccc4)cc23)c(-c2ccc(F)cc2)n1 [Example 51, 3-(4-fluorophenyl)-N,N-dimethyl-4-(6-phenylfuro[2,3-d]pyrimidin-4-yl)-1H-pyrazole-1-sulfonamide] | 7.77 | 6.01 | 7.56 | 4.97 | 6.11 |  |  | 
O=S1(=O)CC(CCn2cc(-c3ncnc4oc(-c5ccccc5)cc34)c(-c3ccc(F)cc3)n2)C1 [Example 52, 3-{2-[3-(4-Fluorophenyl)-4-(6-phenylfuro[2,3-d]pyrimidin-4-yl)-1H-pyrazol-1-yl]ethyl}-1λ6-thietane-1,1-dione] | 9.51 | 7.68 | 9.43 | 5.71 | 6.97 |  |  | 
O[C@H]1C[C@H](Cn2ncc(-c3ncnc4oc(-c5ccccc5)cc34)c2-c2ccc(F)cc2)C1 [Example 54, (1r,3r)-3-{[5-(4-fluorophenyl)-4-(6-phenylfuro[2,3-d]pyrimidin-4-yl)-1H-pyrazol-1-yl]methyl}cyclobutan-1-ol] | 7.80 | 6.08 | 7.70 | 5.05 | 6.00 |  |  | 
CS(=O)(=O)CCCn1cc(-c2ncnc3oc(-c4ccccc4)cc23)c(-c2ccc(F)cc2)n1 [Example 55, 4-{3-(4-Fluorophenyl)-1-[3-(methanesulfonyl)propyl]-1H-pyrazol-4-yl}-6-phenylfuro[2,3-d]pyrimidine] | 9.61 | 7.67 | 9.54 | 5.89 | 7.10 |  |  | 
CS(=O)(=O)n1ncc(-c2ncnc3oc(-c4ccccc4)cc23)c1-c1ccc(F)cc1 [Example 56, 4-[5-(4-fluorophenyl)-1-(methanesulfonyl)-1H-pyrazol-4-yl]-6-phenylfuro[2,3-d]pyrimidine] | 8.45 | 6.73 | 8.34 | 5.26 | 6.65 |  |  | 
CC(C)(O)CCc1nc(-c2ccc(F)cc2)c(-c2ncnc3oc(-c4ccccc4)nc23)o1 [Example 57, 4-[4-(4-fluorophenyl)-5-(2-phenyl[1,3]oxazolo[5,4-d]pyrimidin-7-yl)-1,3-oxazol-2-yl]-2-methylbutan-2-ol] | 7.77 | 5.89 | 7.99 | 5.13 | 6.16 |  |  | 
CC(O)Cn1cc(-c2ncnc3oc(-c4ccccc4)cc23)c(-c2ccc(F)cc2)n1 (centres unmarked) [Example 58, 1-[3-(4-Fluorophenyl)-4-(6-phenylfuro[2,3-d]pyrimidin-4-yl)-1H-pyrazol-1-yl]propan-2-ol] | 9.46 |  | 9.75 |  |  | 7.36 | 5.68 | 7.24
CC1(Cn2cc(-c3ncnc4oc(-c5ccccc5)cc34)c(-c3ccc(F)cc3)n2)COC1 [Example 59, 4-{3-(4-fluorophenyl)-1-[(3-methyloxetan-3-yl)methyl]-1H-pyrazol-4-yl}-6-phenylfuro[2,3-d]pyrimidine] | 8.90 | 6.67 | 9.12 | 5.23 | 6.63 |  |  | 
Fc1ccc(-c2n[nH]cc2-c2ncnc3oc(-c4ccccc4)cc23)cc1 [Example 60, 4-[3-(4-Fluorophenyl)-1H-pyrazol-4-yl]-6-phenylfuro[2,3-d]pyrimidine] | 9.28 | 6.93 | 9.38 | 5.64 | 7.05 |  |  | 
CN(C)S(=O)(=O)CCCn1cc(-c2ncnc3oc(-c4ccccc4)cc23)c(-c2ccc(F)cc2)n1 [Example 61, 3-[3-(4-Fluorophenyl)-4-(6-phenylfuro[2,3-d]pyrimidin-4-yl)-1H-pyrazol-1-yl]-N,N-dimethylpropane-1-sulfonamide] | 9.22 | 7.61 | 9.04 | 5.94 | 7.14 |  |  | 
CC(O)CCn1cc(-c2ncnc3oc(-c4ccccc4)cc23)c(-c2ccc(F)cc2)n1 (centres unmarked) [Example 62, 4-[3-(4-Fluorophenyl)-4-(6-phenylfuro[2,3-d]pyrimidin-4-yl)-1H-pyrazol-1-yl]butan-2-ol] | 9.28 | 7.52 | 9.15 | 5.94 | 7.35 |  |  | 
Fc1ccc(-c2nn(CCC3COC3)cc2-c2ncnc3oc(-c4ccccc4)cc23)cc1 [Example 64, 4-{3-(4-Fluorophenyl)-1-[2-(oxetan-3-yl)ethyl]-1H-pyrazol-4-yl}-6-phenylfuro[2,3-d]pyrimidine] | 9.11 | 7.20 | 8.96 | 5.84 | 7.00 |  |  | 
NS(=O)(=O)CCCn1cc(-c2ncnc3oc(-c4ccccc4)cc23)c(-c2ccc(F)cc2)n1 [Example 65, 3-[3-(4-Fluorophenyl)-4-(6-phenylfuro[2,3-d]pyrimidin-4-yl)-1H-pyrazol-1-yl]propane-1-sulfonamide] | 9.58 | 7.70 | 9.47 | 6.23 | 7.61 |  |  | 
CC(C)(O)CCc1nc(-c2ccc(F)cc2)c(-c2ncnc3sc(-c4ccccc4)cc23)o1 [Example 66, 4-[4-(4-fluorophenyl)-5-(6-phenylthieno[2,3-d]pyrimidin-4-yl)-1,3-oxazol-2-yl]-2-methylbutan-2-ol] | 7.84 | 5.89 | 8.09 | < 4.70 | 5.57 |  |  | 
CC(C)(O)CCn1cc(-c2ncnc3sc(-c4ccccc4)cc23)c(-c2ccc(F)cc2)n1 [Example 67, 4-[3-(4-fluorophenyl)-4-(6-phenylthieno[2,3-d]pyrimidin-4-yl)-1H-pyrazol-1-yl]-2-methylbutan-2-ol] | 7.81 | 5.98 | 7.73 | 5.09 | 5.79 |  |  | 
Fc1ccc(-c2nn(CC3CCO3)cc2-c2ncnc3oc(-c4ccccc4)cc23)cc1 (centres unmarked) [Example 69, 4-{3-(4-Fluorophenyl)-1-[(oxetan-2-yl)methyl]-1H-pyrazol-4-yl}-6-phenylfuro[2,3-d]pyrimidine] | 9.34 | 7.16 | 9.42 | 5.63 | 7.40 |  |  | 
N#CCCn1cc(-c2ncnc3oc(-c4ccccc4)cc23)c(-c2ccc(F)cc2)n1 [Example 70, 3-[3-(4-Fluorophenyl)-4-(6-phenylfuro[2,3-d]pyrimidin-4-yl)-1H-pyrazol-1-yl]propanenitrile] | 9.48 | 7.94 | 9.46 | 6.17 | 8.10 |  |  | 
FCCCCn1cc(-c2ncnc3oc(-c4ccccc4)cc23)c(-c2ccc(F)cc2)n1 [Example 71, 4-[1-(4-fluorobutyl)-3-(4-fluorophenyl)-1H-pyrazol-4-yl]-6-phenylfuro[2,3-d]pyrimidine] | 8.90 | 6.82 | 8.79 | 5.58 | 7.08 |  |  | 
OCCCc1nc(-c2ccc(F)cc2)c(-c2ncnc3sc(-c4ccccc4)cc23)o1 [Example 74, 3-[4-(4-fluorophenyl)-5-(6-phenylthieno[2,3-d]pyrimidin-4-yl)-1,3-oxazol-2-yl]propan-1-ol] | 8.03 | 6.04 | 8.54 | < 4.70 | 6.57 |  |  | 
